Values of other authors in US7259160B2, “Hexahydrodiazepinones as dipeptidyl peptidase-IV inhibitors for the treatment or prevention of diabetes” (Merck & Co., Inc., priority 2003, dated 2007).

Assays:
[1] = test system: hematopoiesis; conditions: mouse, cyclophosphamide-induced neutropenia
[2] = molecular target: T1, DPP-IV (Homo sapiens, UniProt P27487)
T1 construct: GRF is rapidly degraded in plasma to GRF[344]
T1 sequence (P27487 whole entry, species assumed): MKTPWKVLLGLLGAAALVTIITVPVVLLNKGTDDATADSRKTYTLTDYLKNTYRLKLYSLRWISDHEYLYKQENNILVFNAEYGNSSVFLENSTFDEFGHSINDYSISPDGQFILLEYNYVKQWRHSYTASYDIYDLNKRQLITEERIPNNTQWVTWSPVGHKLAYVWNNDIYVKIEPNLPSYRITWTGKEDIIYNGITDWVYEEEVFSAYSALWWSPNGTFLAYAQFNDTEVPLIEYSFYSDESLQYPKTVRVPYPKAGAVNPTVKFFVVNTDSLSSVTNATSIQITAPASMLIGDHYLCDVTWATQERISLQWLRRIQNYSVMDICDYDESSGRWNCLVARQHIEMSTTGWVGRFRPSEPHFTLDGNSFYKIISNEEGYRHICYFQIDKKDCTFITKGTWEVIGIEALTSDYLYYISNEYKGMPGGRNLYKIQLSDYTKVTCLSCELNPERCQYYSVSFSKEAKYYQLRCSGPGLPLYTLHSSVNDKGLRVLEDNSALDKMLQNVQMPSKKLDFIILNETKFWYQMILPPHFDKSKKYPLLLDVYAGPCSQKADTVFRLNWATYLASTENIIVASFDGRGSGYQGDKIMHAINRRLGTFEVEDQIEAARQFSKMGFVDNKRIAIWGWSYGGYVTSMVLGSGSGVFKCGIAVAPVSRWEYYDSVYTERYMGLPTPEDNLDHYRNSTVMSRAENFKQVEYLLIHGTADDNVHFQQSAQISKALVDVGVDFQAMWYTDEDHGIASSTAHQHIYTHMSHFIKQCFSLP

degradation of GRF in plasma [2] | Molecule | hematopoiesis [1]
 | CC(C)[C@H](N)C(=O)N1CCC[C@H]1B(O)O [Val-Boro-Pro] | stimulated hematopoiesis
prevented | diprotin A | 
